Structures are written as SMILES. Where two headings read alike, the source gives them in different places.

This note sets out measurements from US4997843A, “2,4-disubstituted derivatives of tetrahydrofuran useful for the treatment of PAF mediated illnesses” (J Uriach & Cia S.A., priority 1987, dated 1991).

Assay [1] has as its system platelet aggregation induced by PAF. As to the kind of experiment: Test 1: inhibition of platelet aggregation induced by PAF in vitro (rabbit platelet rich plasma, Born nephelometric technique). It is filed as cell-based, male New Zealand albino rabbits. To be noted: PAF C18 16 nM final, read-out: IC50 (concentration of the drug needed to inhibit the platelet aggregation in a 50%). The procedure: TEST 1: INHIBITION OF PLATELET AGGREGATION INDUCED BY PAF
The platelet rich plasma (PRP) is prepared by blood centrifugation at 250 xg for 10 min. at 4° C. and it is diluted with platelet poor plasma (PPP) obtained by additional centrifugation at 300 xg for 10 min. The amount of platelets is adjusted to […].

Assay [2] relates to hypotension induced by PAF. Briefly: Test 2: inhibition of the hypotensive effect induced by PAF in normotense rats. It is filed as in vivo, male Sprague Dawley rats. The settings on record: anesthetized rats, compound via femoral vein 3 min before PAF (0.5 mg/Kg, i.v.); for ED50: Rattus norvegicus, iv, read-out: IC50 (inhibition of the hypotension induced by PAF). The procedure: TEST 2--INHIBITION OF THE HYPOTENSIVE EFFECT INDUCED BY PAF IN NORMOTENSE RATS
Male Sprague Dawley rats, of 180-220 g of weight, anesthetized with sodium pentobarbital (50 mg/Kg, i.p. 1 mL/100 g) have been used. In order to measure the average arterial pressure a polyethylene catheter was introduced into the carotid artery. The arterial pressure was recorded with the help of a transducer connected with a R611 Beckman polygraph. The tested compounds were administrated through the femoral vein 3 min. before the injection of PAF (0.5 mg/Kg, i.v.).

The mark [3] stands for this setting: Oryctolagus cuniculus, Platelet.

Consider `CCCCCCCCCCCCCCCNC(=O)OCC1COC(COC(=O)N(Cc2cccc[n+]2CC)C(C)=O)C1` (racemic) [Compound 49, (±)-cis, trans-N-ethyl-2-[N-acetyl-[[[(4-pentadecylaminocarbonyloxymethyltetrahydrofuran-2-yl)methoxy]-carbonyl]amino]methyl]pyridinium iodide], for which, in assay [1] (setting [3]), the IC50 was determined as 4.5 nM. Further, the ED50 in assay [2] was found to be 0.033 mg/kg.

Regarding `CCCCCCCCCCCCCCOC[C@H]1CO[C@@H](COC(=O)N(Cc2cccc[n+]2CC)C(C)=O)C1.[Cl-]` (racemic) [Compound 25, (±)-cis, trans-N-ethyl-2-[N-acetyl-[[[(4-tetradecyloxymethyltetrahydrofuran-2-yl)methoxy]carbonyl]amino]-methyl]pyridinium chloride], the IC50 in assay [1] was 95 nM. Further, in assay [2], the “IC50 (inhibition of the hypotension induced by PAF)” value is 0.081 mg/Kg, i.v.

Regarding `CCCCCCCCCCCCCCCCOCC1COC(COCCCCCC[n+]2ccsc2)C1` (racemic) [Compound 4, (±)-cis, trans-3-[6-[(4-hexadecyloxymethyltetrahydrofuran-2-yl)methoxy]hexyl]thiazolium 4-methylbenzenesulfonate], in assay [1] (setting [3]), the IC50 was 1400 nM. Moreover, in assay [2], the ED50 is 1.2 mg/kg.

Regarding `CCCCCCCCCCCCCCCCCCOCC1COC(COC(=O)N(Cc2cccc[n+]2CC)C(C)=O)C1` (racemic) [Compound 20, (±)-cis, trans-N-ethyl-2-[N-acetyl-[[[(4-octadecyloxymethyltetrahydrofuran-2yl)methoxy]carbonyl]amino]methyl]pyridinium iodide], the IC50 in assay [1] (setting [3]) was 34 nM. Also, the ED50 in assay [2] is 0.035 mg/kg.

Turning to `CCCCCCCCCCCCCCCCCCOCC1CC(COC(=O)N(Cc2cccc[n+]2C)C(C)=O)CO1` (racemic) [Compound 68, (±)-cis, trans-N-methyl-2-[N-acetyl-[[[(2-octadecyloxymethyltetrahydrofuran-4-yl)methoxy]carbonyl]amino]methyl]pyridinium iodide], the IC50 in assay [1] (setting [3]) is 140 nM. Also, in assay [2], the ED50 turned out to be 0.11 mg/kg.

Turning to `CCCCCCCCCCCCOCC1COC(COCCCCCCC[n+]2ccsc2)C1` (racemic) [Compound 1, (±)-cis, trans-3-[7-[(4-dodecyloxymethyltetrahydrofuran-2-yl)methoxy]heptyl]thiazolium 4-methylbenzenesulphonate], the IC50 in assay [1] (setting [3]) came out at 2500 nM. Further, in assay [2], the ED50 amounted to 3.7 mg/kg.

Regarding `CCCCCCCCCCCCCCCCCCOCC1COC(COC(=O)CCCCC[n+]2ccsc2)C1` (racemic) [Compound 6, (±)-cis, trans-3-[6-[(4-octadecyloxymethyltetrahydrofuran-2-yl)methoxy]-6-oxohexyl]thiazolium 4-methylbenzenesulfonate], the IC50 in assay [1] (setting [3]) turned out to be 8600 nM. Also, the ED50 in assay [2] came out at 1.9 mg/kg.

`CCCCCCCCCCCCCCCCCCOCC1COC(COC(=O)N(Cc2cccc[n+]2C)C(C)=O)C1` (racemic) [Compound 19, (±)-cis, trans-N-methyl-2-[N-acetyl-[[[(4-octadecyloxymethyltetrahydrofuran-2-yl)methoxy]carbonyl]amino]methyl]pyridinium iodide]: in assay [1] (setting [3]), the IC50 came out at 90 nM. Also, the ED50 in assay [2] is 0.14 mg/kg.

With `CCCCCCCCCCCCCCC1COC(COCCCCCCC[n+]2ccsc2)C1` (racemic) [Compound 82, (±)-cis, trans-3-[7-[(4-tetradecyltetrahydrofuran-2-yl)methoxy]heptyl]thiazolium 4-methylbenzenesulfonate], in assay [1] (setting [3]), the IC50 was determined as 1800 nM. In addition, in assay [2], the ED50 stood at 1.5 mg/kg.

As to `CCCCCCCCCCCCCCCCCCOCC1CC(COC(=O)NCc2cccc[n+]2C)CO1` (racemic) [Compound 66, (±)-cis, trans-N-methyl-2-[[[[(2-octadecyloxymethyl-tetrahydrofuran-4-yl)methoxy]carbonyl]amino]methyl]pyridinium iodide], the IC50 in assay [1] (setting [3]) is 1600 nM. Moreover, the ED50 in assay [2] came out at 5 mg/kg.

Consider `CCCCCCCCCCCCCCCCOCC1COC(COC(=O)N(Cc2cccc[n+]2CC)C(=O)OCC)C1` (racemic) [Compound 15, (±)-cis, trans-N-ethyl-[N-ethoxycarbonyl-[[[(4-hexadecyloxymethyltetrahydrofuran-2-yl)methoxy]carbonyl]amino]methyl]pyridinium iodide], for which, in assay [1] (setting [3]), the IC50 was 48 nM. Also, in assay [2], the ED50 came out at 0.035 mg/kg.

Regarding `CCCCCCCCCCCCCCCCCNC(=O)OCC1COC(COC(=O)N(Cc2cccc[n+]2CC)C(C)=O)C1` (racemic) [Compound 53, (±)-cis, trans-N-ethyl-2-[N-acetyl-[[[(4-heptadecylaminocarbonyloxymethyltetrahydrofuran-2-yl)methoxy]carbonyl]amino]methyl]pyridinium iodide], in assay [1] (setting [3]), the IC50 was found to be 27 nM. Also, in assay [2], the ED50 was determined as 0.042 mg/kg.

On to `CCCCCCCCCCCCCCCNC(=O)OCC1COC(COC(=O)CCCCC[n+]2ccsc2)C1` (racemic) [Compound 7, (±)-cis, trans-3-[6-oxo-6-[(4-pentadecylaminocarbonyloxymethyltetrahydrofuran-2-yl)methoxy]hexyl]thiazolium 4-methylbenzenesulfonate], for which, in assay [1] (setting [3]), the IC50 stood at 5900 nM. Also, in assay [2], the ED50 was found to be 3.6 mg/kg.
